Experimental data taken from patent US7723523B2, “Tetrahydropyridothiophenes” (4SC AG, priority 2004, dated 2010).
pIC50: −log10 of the molar value.

Experiments:
[1] = tested on: RKO (RKOp27) human colon adenocarcinoma cells; test: Alamar Blue cell viability assay, anti-proliferative/cytotoxic activity on proliferating RKOp27 cells; assay type: cell-based; settings: absence of Ponasterone A, 72 hours incubation, read-out: IC50 RKO p27 proliferating
Method: The anti-proliferative/cytotoxic activity of the compounds described herein, can be tested on subclones of RKO (RKOp27) human colon adenocarcinoma cells (Schmidt et al., Oncogene 19, 2423-2429; 2000) using the Alamar Blue cell viability assay (described in O'Brien et al. Eur J Biochem 267, 5421-5426, 2000). The compounds are dissolved as 20 mM solutions in dimethylsulfoxide (DMSO) and subsequently diluted in semi-logarithmic steps. DMSO dilutions are further diluted 1:100 into Dulbecco's modified Eagle's medium (DMEM) containing 10% fetal calf serum to a final concentration twice as much as the final concentration in the test. RKO subclones are seeded into 96 well flat bottom plates at a density of 4000 cells per well in a volume of 50 μl per well. 24 hours after seeding 50 μl each of the compound dilutions in DMEM are added into each well of the 96 well plate. Each compound dilution is tested as quadruplicates. Wells containing untreated control cells are filled with 50 μl DMEM containing 1% DMSO. The cells are then incubated with the substances for 72 hours at 37° C. in a humidified atmosphere containing 5% carbon dioxide. To determine the viability of the cells, 10 μl of an Alamar Blue solution (Biosource) are added and the fluorescence is measured at an extinction of 544 nm and an emission of 590 nm. For the calculation of the cell viability the emission value from untreated cells is set as 100% viability and the emission rates of treated cells are set in relation to the values of untreated cells. Viabilities are expressed as % values.
The corresponding IC50 values of the compounds for anti-proliferative/cytotoxic activity are determined from the concentration-effect curves.
Representative IC50 values for anti-proliferation/cytotoxicity determined in the aforementioned assay are described in the table A (1st column), in which the numbers of the compound correspond to the numbers of the examples.

[2] = tested on: RKO colon adenocarcinoma cells (RKOp27) arrested by expression of ectopic p27Kip1; test: Alamar Blue cell viability assay on RKOp27 cells arrested by Ponasterone A-induced p27Kip1 (cell cycle specific mode of action); assay type: cell-based; settings: Homo sapiens, RKOp27, 72 h, cells arrested by p27Kip1 induced with 10 μM Ponasterone A, 72 hours incubation, read-out: IC50 RKO p27 arrested
Method: To determine the cell cycle specific mode of action, subclones of RKO colon adenocarcinoma cells (RKOp27 or RKOp21 as described by Schmidt et al. in Oncogene 19, 2423-2429; 2000) are seeded into 96 well flat bottom plates at a density of 16000 cells per well in a volume of 50 μl per well in DMEM growth medium with 10% FCS containing 10 μM Ponasterone A. 24 hours after seeding 50 μl each of the compound dilutions in DMEM are added into each well of the 96 well plate. Each compound dilution is tested as quadruplicates. Wells containing untreated control cells are filled with 50 μl DMEM containing 1% DMSO. The cells are then incubated with the substances for 72 hours at 37° C. in a humidified atmosphere containing 5% carbon dioxide. To determine the viability of the cells, 10 μl of an Alamar Blue solution (Biosource) are added and the fluorescence is measured at an extinction of 544 nm and an emission of 590 nm. For the calculation of the cell viability the emission value from untreated cells is set as 100% viability and the emission rates of treated cells are set in relation to the values of untreated cells. Viabilities are expressed as % values. Viability is compared of proliferating cells grown in the absence of the inducer Ponasterone A, versus viability of cells arrested by the expression of ectopic p27Kip1 induced by Ponasterone A. The data of this experimental setting are summarized in table A (2nd column).

Row | SMILES | pIC50 [2] | pIC50 [1]
1 | CCOC(=O)N1CCc2c(sc(NC(=O)/C=C/c3cc(OC)ccc3OC)c2C#N)C1 [Example 102, 3-Cyano-2-[(E)-3-(2,5-dimethoxy-phenyl)-allanoylamino]-4,7-dihydro-5H-thieno[2,3-c]pyridine-6-carboxylic acid ethyl ester] | ≤ 4.00 | ≥ 5.70
2 | CCOc1ccccc1/C=C/C(=O)Nc1sc2c(c1C#N)CCN(C(=O)OCc1cccnc1)C2 [Example 237, 3-Cyano-2-[(E)-3-(2-ethoxy-phenyl)-allanoylamino]-4,7-dihydro-5H-thieno[2,3-c]pyridine-6-carboxylic acid pyridin-3-ylmethyl ester] | ≤ 4.00 | ≥ 5.70
3 | N#Cc1c(NC(=O)/C=C/c2ccccc2)sc2c1CCN(C(=O)OCC(O)CO)C2 (centres unmarked) [Example 128, 3-Cyano-2-((E)-3-phenyl-allanoylamino)-4,7-dihydro-5H-thieno[2,3-c]pyridine-6-carboxylic acid 2,3-dihydroxy-propyl ester] | ≤ 4.00 | ≥ 5.70
4 | CCOC(=O)N1CCc2c(sc(NC(=O)/C=C/c3ccccc3CC)c2C#N)C1 [Example 82, 3-Cyano-2-[(E)-3-(2-ethyl-phenyl)-allanoylamino]-4,7-dihydro-5H-thieno[2,3-c]pyridine-6-carboxylic acid ethyl ester] | ≤ 4.00 | ≥ 5.70
5 | CCOC(=O)N1CCc2c(sc(NC(=O)/C=C/c3ccc(-c4ccccc4)o3)c2C#N)C1 [Example 91, 3-Cyano-2-[(E)-3-(5-phenyl-furan-2-yl)-allanoylamino]-4,7-dihydro-5H-thieno[2,3-c]pyridine-6-carboxylic acid ethyl ester] | ≤ 4.00 | ≥ 5.70
6 | CCOC(=O)N1CCc2c(sc(NC(=O)/C=C/c3cccc(F)c3)c2C#N)C1 [Example 21, 3-Cyano-2-[(E)-3-(3-fluoro-phenyl)-allanoylamino]-4,7-dihydro-5H-thieno[2,3-c]pyridine-6-carboxylic acid ethyl ester] | < 4.00 | ≥ 5.70
7 | CCOc1ccccc1/C=C/C(=O)Nc1sc2c(c1C#N)CCN(C(=O)OCCOC)C2 [Example 235, 3-Cyano-2-[(E)-3-(2-ethoxy-phenyl)-allanoylamino]-4,7-dihydro-5H-thieno[2,3-c]pyridine-6-carboxylic acid 2-methoxy-ethyl ester] | ≤ 4.00 | ≥ 5.70
8 | CCOC(=O)N1CCc2c(sc(NC(=O)/C=C/c3cccc(OC)c3OC)c2C#N)C1 [Example 20, 3-Cyano-2-[(E)-3-(2,3-dimethoxy-phenyl)-allanoylamino]-4,7-dihydro-5H-thieno[2,3-c]pyridine-6-carboxylic acid ethyl ester] | < 4.00 | ≥ 5.70
9 | CCOC(=O)N1CCc2c(sc(NC(=O)/C=C/c3ccc(OC)cc3F)c2C#N)C1 [Example 70, 3-Cyano-2-[(E)-3-(2-fluoro-4-methoxy-phenyl)-allanoylamino]β4,7-dihydro-5H-thieno[2,3-c]pyridine-6-carboxylic acid ethyl ester] | ≤ 4.00 | ≥ 5.70
10 | CCOC(=O)N1CCc2c(sc(NC(=O)/C=C/c3ccc4c(c3)OCO4)c2C#N)C1 [Example 30, 2-((E)-3-Benzo[1,3]dioxol-5-yl-allanoylamino)-3-cyano-4,7-dihydro-5H-thieno[2,3-c]pyridine-6-carboxylic acid ethyl ester] | < 4.00 | ≥ 5.70
11 | COCCOCC(=O)N1CCc2c(sc(NC(=O)/C=C/c3ccccc3)c2C#N)C1 [Example 175, (E)-N-{3-Cyano-6-[2-(2-methoxy-ethoxy)-ethanoyl]-4,5,6,7-tetrahydro-thieno[2,3-c]pyridin-2-yl}-3-phenyl-acrylamide] | ≤ 4.00 | ≥ 5.70

Now from value to compound, other results behind:

Row | pIC50 [2] | SMILES | pIC50 [1]
12 | ≤ 4.00 | COc1ccccc1/C=C/C(=O)Nc1sc2c(c1C#N)CCN(C(=O)OCCc1ccccn1)C2 [Example 139, 3-Cyano-2-[(E)-3-(2-methoxy-phenyl)-allanoylamino]-4,7-dihydro-5H-thieno[2,3-c]pyridine-6-carboxylic acid 2-pyridin-2-yl-ethyl ester] | ≥ 5.70
13 | ≤ 4.00 | N#Cc1c(NC(=O)/C=C/c2cccnc2)sc2c1CCN(C(=O)Cc1ccccn1)C2 [Example 196, (E)-N-[3-Cyano-6-(2-pyridin-2-yl-ethanoyl)-4,5,6,7-tetrahydro-thieno[2,3-c]pyridin-2-yl]-3-pyridin-3-yl-acrylamide] | ≥ 5.70
14 | ≤ 4.00 | N#Cc1c(NC(=O)/C=C/c2ccccc2)sc2c1CCN(C(=O)OCCCN1CCOCC1)C2 [Example 120, 3-Cyano-2-((E)-3-phenyl-allanoylamino)-4,7-dihydro-5H-thieno[2,3-c]pyridine-6-carboxylic acid 3-morpholin-4-yl-propyl ester] | ≥ 5.70
15 | ≤ 4.00 | CCOC(=O)N1CCc2c(sc(NC(=O)/C=C/c3ccccc3Oc3ccccc3)c2C#N)C1 [Example 104, 3-Cyano-2-[(E)-3-(2-phenoxy-phenyl)-allanoylamino]-4,7-dihydro-5H-thieno[2,3-c]pyridine-6-carboxylic acid ethyl ester] | ≥ 5.70
16 | ≤ 4.00 | CCOC(=O)N1CCc2c(sc(NC(=O)/C=C/c3ccc(C)s3)c2C#N)C1 [Example 76, 3-Cyano-2-[(E)-3-(5-methyl-thiophen-2-yl)-allanoylamino]-4,7-dihydro-5H-thieno[2,3-c]pyridine-6-carboxylic acid ethyl ester] | ≥ 5.70
17 | ≤ 4.00 | CCSC(=O)N1CCc2c(sc(NC(=O)/C=C/c3ccccc3OC)c2C#N)C1 [Example 50, 3-Cyano-2-[(E)-3-(2-methoxy-phenyl)-allanoylamino]-4,7-dihydro-5H-thieno[2,3-c]pyridine-6-carbothioic acid S-ethyl ester] | ≥ 5.70
18 | < 4.00 | N#Cc1c(NC(=O)/C=C/c2cccnc2)sc2c1CCN(C(=O)OCCc1ccccc1)C2 [Example 47, 3-Cyano-2-((E)-3-pyridin-3-yl-allanoylamino)-4,7-dihydro-5H-thieno[2,3-c]pyridine-6-carboxylic acid phenethyl ester] | ≥ 5.70
19 | ≤ 4.00 | CCOc1ccccc1/C=C/C(=O)Nc1sc2c(c1C#N)CCN(C(=O)CCOC)C2 [Example 216, (E)-N-[3-Cyano-6-(3-methoxy-propanoyl)-4,5,6,7-tetrahydro-thieno[2,3-c]pyridin-2-yl]-3-(2-ethoxy-phenyl)-acrylamide] | ≥ 5.70
20 | < 4.00 | CCCC(=O)N1CCc2c(sc(NC(=O)/C=C/c3cccnc3)c2C#N)C1 [Example 39, (E)-N-(6-Butyryl-3-cyano-4,5,6,7-tetrahydro-thieno[2,3-c]pyridin-2-yl)-3-pyridin-3-yl-acrylamide] | ≥ 5.70
21 | < 4.00 | CCOC(=O)N1CCc2c(sc(NC(=O)/C=C/c3ccc(Cl)cc3Cl)c2C#N)C1 [Example 28, 3-Cyano-2-[(E)-3-(2,4-dichloro-phenyl)-allanoylamino]-4,7-dihydro-5H-thieno[2,3-c]pyridine-6-carboxylic acid ethyl ester] | ≥ 5.70
22 | ≤ 4.00 | CCOC(=O)N1CCc2c(sc(NC(=O)/C=C/c3cccc(OC)c3OCC)c2C#N)C1 [Example 96, 3-Cyano-2-[(E)-3-(2-ethoxy-3-methoxy-phenyl)-allanoylamino]-4,7-dihydro-5H-thieno[2,3-c]pyridine-6-carboxylic acid ethyl ester] | ≥ 5.70
